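Results reflect a 48-hour exposure of cells in 96-well plates to compound at five concentrations. Abbreviation: GI50, concentration required for 50% inhibition of growth. TGI: concentration producing complete growth inhibition.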 Some results are limits rather than exact numbers.

Some test systems named below: MDA-MB-231 breast; NCI/ADR-RES ovarian; MDA-N; HS 578T breast; T-47D breast; PC-3 prostate; SNB-78 CNS; RXF-631 renal.
Holding throughout (experiment): growth of human tumour cells (NCI), 48 h

Take `O=C(O)c1cc(C(=O)O)cc(N2C(=O)c3ccccc3C2=O)c1`: the TGI in the test with MDA-MB-231 breast, in the test on NCI/ADR-RES ovarian, in the test on MDA-N, with HS 578T breast, in the test with T-47D breast and in the test on PC-3 prostate was more than 100 µM in each case.
On to `CSc1ccc(/C=C2\CN(C)C/C(=C\c3ccc(SC)cc3)C2=O)cc1`, for which the TGI in the test on SNB-78 CNS is more than 100 µM.
On the same count and under the same terms, the value for `CC(=O)NC1=C(NCC(C)(C)C)C(=O)c2ccccc2C1=O` was more than 100 µM.
Regarding `CCOC(=O)COc1cccc2c1C(=O)CCO2`, the TGI in the test on SNB-78 CNS and in the test with RXF-631 renal was more than 100 µM in each case.
For `Cc1cc(=O)[nH]c2cc3oc4ccccc4c3cc12`, the TGI in the test with MDA-MB-231 breast, with NCI/ADR-RES ovarian, in the test on MDA-N, with HS 578T breast, in the test on T-47D breast and in the test on PC-3 prostate was more than 100 µM throughout.
Consider `C/C(CCn1[nH]c(=O)ccc1=O)=N\O`, for which the TGI in the test with SNB-78 CNS and with RXF-631 renal was more than 100 µM each time.
`O=C(O)CCSC(=O)Nc1cccc(F)c1` registered a TGI in the test with SNB-78 CNS of more than 100 µM.
On to `O=C1NC2(CCCCC2)C2CCCCC(O)C12` (stereo unspecified), for which the TGI with SNB-78 CNS and in the test on RXF-631 renal was more than 100 µM each time.
As to `Cc1cc(=O)[nH]c(NNC(C#N)c2cccc(O)c2)n1` (stereo unspecified), the TGI in the test on SNB-78 CNS is more than 100 µM.
In the case of `CC1=C(C(=O)Nc2ccccc2C)C(c2ccco2)C(C(=O)Nc2ccccc2C)=C(C)N1C`, the TGI in the test on SNB-78 CNS and with RXF-631 renal was more than 100 µM in each case.
As for `COc1ccc2c(c1)C1(C=N2)CCN(C(C)=O)CC1`, the TGI with SNB-78 CNS and in the test on RXF-631 renal was more than 100 µM in each case.
Molecule `CC1(C)OC(=O)C(=Cc2ccc(O)cc2)C(=O)O1` had a TGI with SNB-78 CNS of more than 100 µM.
On the same count and under the same terms, the value for `COc1ccc(NC(=O)c2cc(OC)cc(OC)c2)cc1` was 83.3 µM; that for `COc1ccccc1NC(=O)CC(=O)n1nc(C)c(N=Nc2ccccc2C(=O)O)c1C` was more than 100 µM.
For the molecule `Nc1ccc(C(=O)N/C(=C\c2ccc3c(c2)OCO3)c2nc3[nH]c(=S)[nH]c(=O)c3[nH]2)cc1`, the TGI with SNB-78 CNS and in the test with RXF-631 renal was more than 100 µM each time.
As to `CC[C@@]12CCCN3CC[C@]4(c5cccc(OC)c5N(C(C)=O)[C@@H]4CC1)[C@H]32`, the TGI with MDA-MB-231 breast, with NCI/ADR-RES ovarian, with MDA-N, in the test with HS 578T breast, in the test with T-47D breast and in the test on PC-3 prostate was more than 100 µM throughout.
For the molecule `CC(=O)OC1COC(n2c(=S)n(-c3ccc(C)cc3)c(=O)c3ccccc32)C(OC(C)=O)C1OC(C)=O` (stereo unspecified), the TGI in the test on SNB-78 CNS and in the test on RXF-631 renal was more than 100 µM each time.
Turning to `O=c1cc(-c2cccc(O)c2)[nH]c2cc3c(cc12)OCO3`, the TGI was 22.1 µM with MDA-MB-231 breast; 54.2 µM in the test with SNB-78 CNS; 4 µM in the test on NCI/ADR-RES ovarian; 1.07 µM in the test with MDA-N; more than 100 µM in the test on T-47D breast; more than 100 µM in the test with PC-3 prostate.
`O=C(/C=C/c1ccccc1Cl)c1ccc(Cl)c(Cl)c1` showed a TGI in the test on SNB-78 CNS of 32.7 µM.
`O=[S@@]1Nc2ccc(Br)cc2S1`: the TGI in the test with SNB-78 CNS and with RXF-631 renal was more than 100 µM throughout.
In turn, `C=CCc1cc(OC)c2c(c1)C(O)CC(c1ccc(OC)c(OC)c1)O2` (stereo unspecified) had a TGI in the test with SNB-78 CNS of more than 100 µM.
Regarding `COc1ccc2nc3cc(Cl)ccc3c(Sc3ccccc3[N+](=O)[O-])c2c1`, the TGI in the test on SNB-78 CNS and in the test with RXF-631 renal was more than 100 µM throughout.
For `O=C1c2cccnc2-c2nc(-c3ccccc3[N+](=O)[O-])cc3c2c1nc1ccccc13`, the GI50 in the test on MDA-MB-231 breast is 3.89 µM; in the test on NCI/ADR-RES ovarian it was 22.3 µM; in the test on MDA-N, 12.2 µM; in the test on HS 578T breast, 31.2 µM; in the test on T-47D breast, 5.3 µM; in the test on PC-3 prostate it was 19.5 µM. Besides, the TGI in the test on MDA-MB-231 breast is more than 100 µM; in the test with NCI/ADR-RES ovarian it was more than 69.3 µM; with MDA-N, 26.1 µM; in the test on HS 578T breast, 86.4 µM; with T-47D breast, more than 100 µM; in the test with PC-3 prostate it was 69.1 µM.
Molecule `CN(CC(=O)O)S(=O)(=O)c1ccc2ccccc2c1` showed a TGI in the test with RXF-631 renal of more than 100 µM.
Take `CC1(C)COC(c2ccc(C(F)(F)F)cc2C(O)c2ccc3ccccc3c2)=N1` (stereo unspecified): in the test with SNB-78 CNS, the GI50 is more than 10 µM and the TGI was more than 100 µM. The TGI with RXF-631 renal is more than 100 µM.
In turn, `N#CC(C#N)=c1ccc(=C2NCC3CCCN23)cc1` (stereo unspecified) displayed a TGI in the test on SNB-78 CNS of more than 100 µM.
`Cc1nc2c(nc1C)C(=O)c1ccccc1C2=O`: the TGI in the test on MDA-MB-231 breast was 35.6 µM; in the test on SNB-78 CNS, more than 94.2 µM; with NCI/ADR-RES ovarian, 17.1 µM; in the test on MDA-N, 0.562 µM; in the test on HS 578T breast, 6.47 µM; in the test with RXF-631 renal, 46.1 µM. Moreover, the values for the TGI with T-47D breast and in the test with PC-3 prostate were 13.8 µM and 30.3 µM, respectively.
On to `COc1cccc(NC(=O)CC(=O)n2nc(C)c(N=Nc3ccccc3)c2C)c1`, for which the TGI with SNB-78 CNS and in the test on RXF-631 renal was more than 100 µM throughout.
`COc1ccc(-n2/c(=N/C(=S)N(C)C)ss/c2=N\C(=S)N(C)C)cc1` came in with a TGI with SNB-78 CNS of more than 100 µM.
For `O=C1C2=C(SCCS2)C(=O)c2ccccc21`, the TGI with RXF-631 renal is 3.28 µM.
`CC(=O)N1[C@H](C(=O)O)CS[C@H]1c1ccncc1` displayed a TGI with SNB-78 CNS of more than 100 µM.
As for `O=C(N/C(=C\c1cc(Cl)ccc1Cl)c1nc2[nH]c(=S)[nH]c(=O)c2[nH]1)c1ccccc1`, the TGI in the test on SNB-78 CNS was more than 100 µM; in the test with RXF-631 renal, more than 82.7 µM.
In the test on RXF-631 renal, `CCOC(=O)c1ncn2c1[nH]c(=S)c1ccccc12` showed a TGI of more than 100 µM.
As to `COc1ccc(/C=C\c2cc(OC)c3c(c2)OCO3)c(O)c1O`, the TGI with SNB-78 CNS amounted to 16 µM.
The same measure, in the same setting: the value for `O=C(CSC(=S)N1CCCCC1)Nc1nc2c(s1)CCCC2` was more than 100 µM.

These data come from PubChem BioAssay (NCI).
